In US20180221433A1, “ANGIOTENSINS IN MUSCULAR DYSTROPHY” (University of Iowa Research Foundation, priority 2013, published 2018):
Positions of bridges follow the written chain, without caps; N, C: chain ends. No end group written: not given here.

Columns and labels:
Format in all cases: in vivo, mouse
[1] = tested on: Sgcd −/− mice; assay: H&E and Masson's Trichrome stain of quadriceps muscle for fibrosis, Example 4; details: osmotic minipump 8 weeks, TXA127 500, Pancyte 50, TXA301 50 μg/kg/day, vs saline, FIG. 10
Experimental: (§1) A total of 32 Sgcd −/− mice were randomly assigned to one of four treatment groups (n=8 in each): a saline group (vehicle) a TXA127 group, a Pancyte group, and a TXA301 group. The doses of Angiotensin (1-7) peptides administered was 500 μg/kg/day for TXA127, 50 μg/kg/day for Pancyte, and 50 μg/kg/day for TXA301. Osmotic minipumps containing the treatments were implanted in mice at 28-35 weeks of age, and the angiotensin (1-7) peptides were infused for 8 weeks. For the last three weeks of treatment, the mice were put in cages with running wheels attached to calculate the amount of voluntary exercise performed by each animal. Total number of wheel revolutions (distance ran) were collected daily. At the end of 8 weeks of treatment, quadriceps muscles were harvested from the mice for histopathological and oxidative stress analyses.
An H&E stain was used to examine the dystrophic morphology of the quadriceps muscles of the mice.

[2] = tested on: Sgcd −/− mice; assay: Oxidative stress (superoxide) by dihydroethidium (DHE) fluorescence in skeletal muscle, Example 2; details: Ang-(1-7) 300 ng/kg/min for 8 weeks, vs untreated Sgcd −/−, FIG. 7
Experimental: (§2) Data were collected over 2-3 days, and 24 hour averages were calculated. Separate groups of control and Sgcd−/− mice were infused with Ang-(1-7) (300 ng/kg/min) for 8 weeks beginning at 3 weeks of age. Measurements were obtained in these mice using the same protocols as described above.
(§3) To assess skeletal muscle phenotypes, paraffin sections of skeletal muscle (quadriceps) were stained with Masson Trichrome to assess histopathology and fibrosis. Frozen sections of skeletal muscle were incubated with polyclonal anti-δ and anti-β sarcoglycan primary antibody, a nuclear stain, and Alexa Fluor 488. AT1R (Ang type 1 receptor) and Mas (Ang(1-7) receptor) were detected with rabbit anti-AT1R, and anti-Mas nuclear stains, and secondary antibody goat anti-rabbit IgG. Oxidative stress (O2.^−) was measured by dihydrocthidium (DHE) fluorescence.
(§4) Data in this example are presented as ±SE. Results were analyzed by ANOVA, and paired and unpaired t-tests as appropriate, significance was determined at p<0.05.

[3] = tested on: Sgcd −/− mice; assay: Baroreflex sensitivity and cardiac/vasomotor autonomic tone in Sgcd −/− mice; details: Ang-(1-7) 300 ng/kg/min for 8 weeks
Experimental: (§5) To examine the effects of angiotensin (1-7) peptides on disruption of normal motor activity in Sgcd −/− mice, conscious, young (10-15 wks) Sgcd−/− and control C57BL6 mice were analyzed by radio-telemetry. Radio-telemeters were implanted into the aorta via the left carotid artery under ketamine-xylazine anesthesia when mice were 10 weeks of age. Following recovery, blood pressure, heart rate and locomotor activity were measured 24 hours/day. Blood pressure measurements were sampled at 2000 Hz for 1 hour periods to enable beat-to-beat measurements of systolic arterial pressure and pulse interval (PI). Baroreflex control of heart rate was assessed from spontaneous fluctuations in systolic blood pressure and pulse interval using known sequence techniques.
Baroreflex sensitivity was calculated from spontaneous fluctuations in systolic blood pressure and pulse interval using the sequence technique. Specifically, baroreflex sensitivity was calculated as the average slope of sequences of 4 or more consecutive blood pressure pulses where the change in blood pressure and pulse interval are positively correlated (r^2>0.85).
Cardiac sympathetic tone and parasympathetic tone were calculated from heart rate responses to the β-adrenergic receptor blocker propranolol and the muscarinic cholinergic receptor blocker methylatropine, respectively. Specifically, resting cardiac sympathetic and parasympathetic (vagal) tone was estimated from heart rate responses to propranolol (1 μg/g, IP) and methylatropine (1 μg/g, IP), respectively. Vasomotor sympathetic tone was calculated from the decrease in mean arterial blood pressure in response to injection of the ganglionic blocker chlorisondamine (12 μg/g, IP).
as §2, §4

[4] = tested on: Sgcd −/− mice; assay: Radio-telemetry of blood pressure, heart rate and locomotor activity in Sgcd −/− mice
Text: In this Example, Sgcd −/− mice, a known model of limb-girdle muscular dystrophy, were used to assess the effects of angiotensin (1-7) peptides on skeletal muscle fibrosis, blood pressure, heart rate, cardiac activity, baroreflex sensitivity, oxidative stress, AT1R receptor expression, and resting cardiac and vagal sympathetic tone. Sgcd −/− mice are missing a key component of the sarcoglycan complex, specifically, they are missing a link between the F-actin cytoskeleton and the extracellular matrix. This defect causes muscle wasting and weakness due to a reduction in muscle fiber integrity and dysregulation in cell signaling in muscle cells. It has been previously shown that this defect results in a reduction of locomotor activity and autonomic dysfunction at a young age. The autonomic dysfunction is thought to lead to cardiac dysfunction later in life.
as §5
Osmotic minipumps (Alzet) were implanted with either Ang (1-7) (also referred to as “TXA127”) or vehicle in mice pups at 3 weeks of age, under ketamine-xylazine anesthesia.
as §2, §4

[5] = tested on: angiotensin type 1 receptors (AT1R); assay: AT1R expression in skeletal muscle sections (Alexa Fluor 488 staining); details: Sgcd −/− mice, Ang-(1-7) 300 ng/kg/min for 8 weeks; vs untreated Sgcd −/−; FIG. 6
Experimental: as §2, §3

[6] = tested on: Sgcd −/− mice; assay: Voluntary running-wheel exercise in Sgcd −/− mice, Example 4; details: for amount of voluntary exercise performed (average running-wheel revolutions, weeks 6, 7 and 8) / amount of exercise performed (accumulated totals over the three week test period): osmotic minipump 8 weeks, vs saline; for amount of voluntary exercise performed (average running-wheel revolutions, weeks 6, 7 and 8): TXA127 500, Pancyte 50, TXA301 50 μg/kg/day, FIG. 8; for amount of exercise performed (accumulated totals over the three week test period): TXA127 500, TXA301 50 μg/kg/day, FIG. 9
Text: In this Example, Sarcoglycan delta deficient mice (Sgcd−/−), an established mouse model of Limb Girdle Muscular Dystrophy-2F (LGMD-2F), was used to examine the effects of angiotensin (1-7) peptides on the progression of functional impairment and fibrosis in sufferers of the disease.
as §1

[7] = tested on: Sgcd −/− mice; assay: Masson Trichrome stain of skeletal muscle (quadriceps) for fibrosis, Example 2
Experimental: as §2, §3, §4

[8] = tested on: Sgcd −/− mice; assay: Oxidative stress by DHE stain of quadriceps muscle, Example 4; details: TXA127 500 μg/kg/day for 8 weeks, vs saline, FIG. 11
Experimental: as §1
Dihydroethidium (DHE) was used to examine the degree of oxidative stress in treated Sgcd−/− mice. […] For quantification of degree of fibrosis, an average of six-sections of skeletal quadriceps muscle were obtained from each mouse. An intensity of fluorescence for each mouse was quantified using NIH ImageJ software and normalized to a percentage of the average fluorescence intensity measured in saline-treated Sgcd−/− mice.

Question: How did the “fibrosis in skeletal muscle (quadriceps)” value [1] turn out when “Asp^1-Arg^2-Val^3-Tyr^4-Ile^5-His^6-Pro^7 [Ang (1-7)]” was run?
Answer: significantly reduced fibrosis

Question: What about the “levels of superoxide (DHE fluorescence)” value [2] of the same substance?
Answer: strongly attenuated

Question: What about the “baroreflex sensitivity (decrease in Sgcd −/− mice)” value ([3]; FIG. 4A) of the same substance?
Answer: essentially abrogated

Question: What about the “vasomotor sympathetic tone (increase in Sgcd −/− mice)” value ([3]; blood pressure response to chlorisondamine, FIG. 4D) of the same substance?
Answer: essentially abrogated

Question: And the “cardiac vagal tone (decrease in Sgcd −/− mice)” value ([3]; heart rate response to methylatropine, FIG. 4B)?
Answer: essentially abrogated

Question: What about the “cardiac sympathetic tone (increase in Sgcd −/− mice)” value ([3]; heart rate response to propranolol, FIG. 4C) of the same substance?
Answer: essentially abrogated

Question: What about the “mean arterial blood pressure” value ([4]; Sgcd −/− mice, Ang-(1-7) 300 ng/kg/min by osmotic minipump for 8 weeks from 3 weeks of age, vs untreated Sgcd −/−, FIG. 2A) of the same substance?
Answer: not significantly affected

Question: And the “24 hour average heart rate” value ([4]; Sgcd −/− mice, Ang-(1-7) 300 ng/kg/min for 8 weeks, vs untreated Sgcd −/− controls, FIG. 2B)?
Answer: mildly decrease

Question: And the “24 hour average locomotor activity” value ([4]; Sgcd −/− mice, Ang-(1-7) 300 ng/kg/min for 8 weeks, vs untreated Sgcd −/−, FIG. 3)?
Answer: reduction in locomotor activity was drastically reduced

Question: And the “levels of locomotion compared with Control C57BL6 mice” value ([4]; treated Sgcd −/− mice vs Control C57BL6 mice, FIG. 3)?
Answer: did not vary significantly

Question: What about the AT1R receptor expression [5] of the same substance?
Answer: essentially abrogates the increase in AT1R

Question: And the “fold improvement in exercise compared to saline control animals” value ([6]; TXA127 500 μg/kg/day, accumulated totals weeks 6-8, FIG. 9)?
Answer: more than six fold improvement

Question: What about the “amount of voluntary exercise performed (average running-wheel revolutions, weeks 6, 7 and 8)” value [6] of the same substance?
Answer: significant improvement

Question: What about the “amount of exercise performed (accumulated totals over the three week test period)” value [6] of the same substance?
Answer: significant increases

Question: And the “fibrosis of skeletal muscle (quadriceps)” value ([7]; Sgcd −/− mice, Ang-(1-7) 300 ng/kg/min for 8 weeks, vs untreated Sgcd −/−, FIG. 5)?
Answer: markedly reduced

Question: And the “levels of fibrosis compared with control C57BL6 mice” value ([7]; treated Sgcd −/− mice vs control C57BL6 mice, FIG. 5B)?
Answer: comparable to control C57BL6 mice

Question: What about the “oxidative stress (DHE fluorescence intensity)” value [8] of the same substance?
Answer: significantly attenuated

Question: “Asp^1-Arg^2-Val^3-Ser^4-Ile^5-His^6-Cys^7 [PanCyte] (DRVSIHC; bridge 4-7; also: cross link type between Ser4 and Cys7 not given here) [cyclic angiotensin (1-7) peptide analog]” was tested. Which “fibrosis in skeletal muscle (quadriceps)” value [1] did it give?
Answer: no reduction in fibrosis was observed

Question: How did the “fibrosis in skeletal muscle (quadriceps)” value [1] turn out when “Asp^1-Arg^2-Val^3-Ser^4-Ile^5-His^6-Cys^7 [TXA301] (DRVSIHC; bridge 4-7; also: cross link type between Ser4 and Cys7 not given here) [linear angiotensin (1-7) peptide]” was run?
Answer: some improvement

Question: And the “amount of voluntary exercise performed (average running-wheel revolutions, weeks 6, 7 and 8)” value [6]?
Answer: significant improvement

Question: And the “amount of exercise performed (accumulated totals over the three week test period)” value [6]?
Answer: significant increases
